Here are results for three substances from ChEMBL document CHEMBL4627250, “Suitable fusion of N-terminal heptad repeats to achieve covalently stabilized potent N-peptide inhibitors of HIV-1 infection” (Bioorg Med Chem, 2020).

The data set in a line: Thermal stability of compound assessed as melting temperature at 10 uM. Format: physicochemical.
Turning to “H-RIQQIEQKIHHIEQRIQQIEQLLQLTVWGIKQLQARIL-OH”, the Tm turned out to be 72 °C.
The figure for “H-RIQQIEQKIHHIEQRIQQIEQRIEAQQHLLQLTVWGIKQLQARIL-OH” is 74 °C; for “H-RIQQIEQKIHHIEQRIQQIEQRISGIVQQQNNLLRIEAQQHLLQLTVWGIKQLQARIL-OH” it is 82 °C.
